Conditions: Liquid, Vibrating tube method

CCCCO [butan-1-ol]
mass density [kg/m3]
Conditions | 293.15 K | 303.15 K | 313.15 K | 323.15 K | 333.15 K | 343.15 K
100 kPa | 809.5 | 802 | 794.1 | 786.5 | 778.3 | 769.9
10000 kPa | 816.4 | 809.4 | 801.6 | 794.5 | 786.8 | 779
20000 kPa | 822.9 | 816 | 809.1 | 801.7 | 794.6 | 787.1
30000 kPa | 828.9 | 822.3 | 815.4 | 808.5 | 801.7 | 794.4
40000 kPa | 834.5 | 828 | 821.4 | 815 | 808.4 | 801.3
50000 kPa | 839.8 | 833.6 | 827.2 | 821 | 814.6 | 807.8
60000 kPa | 844.7 | 838.7 | 832.6 | 826.5 | 820.3 | 813.6
70000 kPa | 849.6 | 843.6 | 837.8 | 831.5 | 825.6 | 819.3
80000 kPa | 854.2 | 848.3 | 842.6 | 836.3 | 830.8 | 824.6
90000 kPa | 858.5 | 852.7 | 847.3 | 841.1 | 836 | 829.5
100000 kPa | 862.9 | 857 | 851.6 | 845.8 | 840.5 | 834.4
110000 kPa | 866.7 | 861.2 | 856 | 850.1 | 844.9 | 838.9
120000 kPa | 870.8 | 865 | 860.1 | 854.3 | 849 | 843.3
130000 kPa | 874.4 | 868.9 | 864 | 858.3 | 853.2 | 847.5
140000 kPa | 878.1 | 872.6 | 867.9 | 862.1 | 857 | –
